The record followed here is patent US9974782B2, “Phosphodiesterase inhibitors and uses thereof” (THE TRUSTEES OF COLUMBIA UNIVERSITY IN THE CITY OF NEW YORK, priority 2008, dated 2018).

Structures are written as SMILES.

For data set [1], the system named is CA1 region of hippocampal slices from APP/PS1 and WT mice. Nature of the data set: Electrophysiological analysis (BST, LTP) of hippocampal slices perfused with inhibitor. To be noted: for effect on LTP impairment in words: slices from APP/PS1 (transgenic) mice, 10 min prior to tetanus. The data set is classed as cell-based, mouse.
Another data set relates to APP/PS1 mice. Kind of data set: Contextual and cued fear conditioning. Type of data set: in vivo, mouse. To be noted: for effect on contextual fear memory in words: APP/PS1 (transgenic) mice. The method, then:
Given that sildenafil reversed LTP deficits in 3-month-old APP/PS1, it was then tested whether the inhibitor reversed the cognitive defects in these animals. As reported above sildenafil offers the advantage of crossing the BBB and therefore it can be easily utilized in behavioural experiments. Three-month-old mice were divided into 4 groups: APP/PS1 with sildenafil, APP/PS1 with vehicle, WT with sildenafil and WT with vehicle. Sildenafil and vehicle control solutions were administered i.p. at a concentration of 3 mg/kg. This concentration was chosen based on previous studies showing that these amounts of sildenafil raise hippocampal cGMP levels and improve memory in aged rats^A6 and mice^A7 independent of vascular effects^A6. The effects of acute administration of sildenafil was first examined on fear-conditioning learning, a type of learning that is impaired in several AD mouse models^A14 and depends on hippocampus and amygdala. The hippocampus is indispensable for contextual fear conditioning^A15, a form of associative learning in which mice must associate a neutral stimulus with an aversive one. Mice were trained to associate neutral stimuli with an aversive one. They were placed in a new context (fear conditioning box), exposed to a white noise cue (CS) paired with a mild foot shock (US), and injected with sildenafil immediately after the training. Fear learning was assessed twenty-four hours later by measuring freezing behaviour—the absence of all movement except for that necessitated by breathing—in response to representation of the context or of the auditory cue within a completely different context. No difference was found in the freezing behaviour among the four groups of mice before the training phase (FIG. 2A). Twenty-four hours later, a decrease in the freezing behaviour of vehicle-treated APP/PS1 mice compared with that of vehicle-treated WT littermates in the analysis of the contextual learning was observed (FIG. 2A). […] Fear conditioning, a hippocampus-independent task A^15, was next tested and no difference in freezing among the 4 groups was found, as APP/PS1 mice are known to have a selective hippocampus-dependent impairment in associative learning^A14.
Sildenafil was tested to determine whether a brief course of treatment can provide long term benefits. The PDE5 inhibitor was examined to see if it maintains its protective effect against synaptic dysfunction and memory loss. In these experiments, both APP/PS1 and WT mice of 3 months of age were injected intraperitoneally with 3 mg/kg/day sildenafil for 3 weeks, then the treatment was stopped for 9-12 weeks prior to testing. The mice were next subjected to training for contextual learning. […] There were no differences between the 4 groups in the cued conditioning test.
Three-month-old APP/PS1 and WT mice were separated into 4 groups: APP/PS1 mice treated with vehicle, APP/PS1 mice treated with PDE inhibitor, WT mice treated with vehicle, and WT mice treated with PDE inhibitor. […] In the remaining experiments, sildenafil was injected via i.p. The drug was administered either acutely or for 1 course of 3 week treatment. For assessment of the short-term effects of sildenafil, the drug was given at a concentration of 3 mg/kg immediately after the training. This dose yields concentrations of ˜2.5 μM cGMP in the hippocampus^A53. For assessment of long-term effects, sildenafil was given daily by i.p. injection at a concentration of 3 mg/kg for 3 weeks and then treatment was stopped for 9-12 weeks prior to behavioral testing. Contextual and cued fear conditioning was performed for 3 days. Radial-arm water-maze (RAWM) was performed for 3 weeks. Then, the animals were sacrificed for electrophysiological recordings. To decide the time of administration of sildenafil in the acute experiments, a series of studies was performed in which the inhibitor was injected i.p. at 5 min before the electric shock or at 5 min before the first acquisition trial with the radial arm water maze. […]

A short description of data set [2]: Pharmacokinetics testing, plasma and brain (LC-MS/MS). The procedure: The pharmacokinetic studies were conducted in male BABL/c mice. The blood and brain samples were collected at predetermined times from three mice per time point. […] An LC-MS/MS method was developed to determine these compounds in plasma and brain samples.
Quantification was achieved by the internal standard method using peak area ratios of the analysis to the internal standard in plasma and brain. Concentrations were calculated using a weighted least-squares linear regression (W=1/×2). The major pharmacokinetic parameters were calculated and the brain-to-plasma distribution ratios were estimated.
The PDE5 inhibitor was prepared by dissolving the test article in 0.5% methyl cellulose to yield final concentrations at 5 mg/mL for PO administration.
Mice were sacrificed by cervical dislocation after blood harvest. The plasma were separated via centrifugation (4° C., 3500 rpm, 10 min) and stored in −80° C. before analysis.
Frozen unknown plasma samples were thawed at room temperature and vortexed thoroughly. With a pipette, 25 μL of plasma was transferred into a 1.5 mL Eppendorf tube. To each sample, 25 μL of methanol and 25 μL of the internal standard were added, followed by the addition of 100-μL methanol. The sample mixture was vortexed for approximately 1 min. After centrifugation at 11000 g for 5 min, the upper organic layer was transferred to a glass tube and evaporated at 40° C. under a gentle stream of nitrogen. Residues were dissolved in 150 μL of the mobile phase, and mixed in a vortex mixer. A 20-μL aliquot of the resulting solution was injected onto the LC/MS/MS system for analysis.
Brains were collected immediately after mice death. The brains were excised, weighed, and rinsed by cold saline and then frozen at −80° C. until further process for LC/MS/MS analysis.
On the day of the assay, the frozen tissue samples were thawed unassisted at room temperature. When completely thawed, each tissue sample of 200 mg was weighed and placed into a plastic tube. Methanol (1.0 mL) was added to facilitate homogenization, which was conducted using a Fluko F6/10 superfine homogenizer for approximately 1 min. Then, the homogenized samples were vortexed for 1 min. A 25-μL aliquot of the homogenized samples was transferred into an Eppendorf tube. To each sample, 25 μL of methanol and 25 μL of the internal standard were added. The sample mixture centrifuged at 11000 g for 5 min. A 20-μL aliquot of the supernatants was diluted to 80 μL or 60 μL with the mobile phase and a 10-μL aliquot was injected onto the LC/MS/MS system for analysis.
We then investigated the PK and BBB penetration capability of YF012403. After p.o. administration at 50 mg/kg to BABL/c mice, plasma and brain concentrations were determined by the LC-MS/MS.

Where [3] appears, read: male, BABL/c, mouse, in vivo, po, 50 mg/kg, half-life in the brain.
[4] abbreviates: male, BABL/c, mouse, in vivo, po, 50 mg/kg, half-life in the plasma.
Where [5] appears, read: APP/PS1 slices, sildenafil 50 nM.
Where [6] appears, read: WT slices, 120 min after tetanus, sildenafil 50 nM, tadalafil 50 nM, IC354 1 μM.
The mark [7] stands for this setting: WT slices, sildenafil or tadalafil 50 nM.
[8] abbreviates: slices of 3-month-old APP/PS1 mice, 120 min after tetanus, 10 min perfusion (sildenafil 50 nM, tadalafil 50 nM, IC354 1 μM).
The mark [9] stands for this setting: 3 month-old WT, sildenafil 3 mg/Kg or tadalafil 1 mg/Kg i.p.
[10] abbreviates: APP/PS1, 3 mg/Kg i.p. for 3 weeks at 3 months, tested 9-12 weeks later.
Where [11] appears, read: WT, 3 mg/Kg i.p. for 3 weeks at 3 months, tested 9-12 weeks later.

`COc1ccc(CNc2c(CO)cnc3c(C4CC4)cc(C#N)cc23)cc1Cl` [YF012403, 4-(3-chloro-4-methoxybenzylamino)-8-cyclopropyl-3-(hydroxymethyl)-quinoline-6-carbonitrile]: in data set [1], the “effect on LTP impairment in words” value is “rescues the defect in LTP”. Also, the “effect on contextual fear memory in words” value with APP/PS1 mice is recorded as “attenuated”. The Kp (usually the ratio of the level in a tissue or fluid to that in plasma or blood) in data set [2] (male, BABL/c, mouse, brain, oral, 50 mg/kg) amounted to 0.41. Moreover, in data set [2] (male, BABL/c, mouse, in vivo, po, 50 mg/kg), the Cmax (in general, the maximum level reached in the sampled fluid or tissue) is 385 ng/g. In addition, the half-life (as a rule, the time in which the quantity being followed falls by half) in data set [2] (setting [3]) was 1.04 h; in data set [2] (setting [4]), 1.33 h. Further, the “log BB” value in data set [2] (mouse, in vivo) was −0.38. In addition, in data set [2] (p.o., 50 mg/kg, BABL/c mice), the “time of peak plasma concentration after dosing” value worked out at 0.5 h.
For the molecule `CCCc1nn(C)c2c(=O)[nH]c(-c3cc(S(=O)(=O)N4CCN(C)CC4)ccc3OCC)nc12` [sildenafil, 5-[2-ethoxy-5-(4-methyl-1-piperazinylsulphonyl)phenyl]-1-methyl-3-n-propyl-1,6-dihydro-7H-pyrazolo[4,3-d]pyrimidin-7-one], in data set [1] (setting [5]), the “basal neurotransmission without tetanus as % of vehicle-treated WT slices” value is reported as ~96%. Besides, the “basal neurotransmission without tetanus, fEPSP % of baseline” value in data set [1] (setting [5]) came out at 99.99±3.71%. Moreover, the “LTP, fEPSP slope as % of baseline” value in data set [1] (setting [6]) is given as 213.26±13.66%; in data set [1] (setting [8]), 215.08±11.85%. Also, the “level of LTP as % of vehicle-treated WT slices” value in data set [1] (setting [6]) was ~99%. For the same molecule, in data set [1] (setting [7]), the “basal synaptic responses without tetanus as % of vehicle-treated WT slices” value was ~97%. In addition, in data set [1] (setting [7]), the “basal synaptic responses without tetanus, fEPSP % of baseline” value worked out at 100.51±2.34%. Also, the “effect on LTP impairment in words” value in data set [1] is listed as “reverses LTP impairment”. For the same molecule, the “minimum effective dose that completely rescues synaptic plasticity” value in data set [1] (slices of 3-month-old APP/PS1 mice) was determined as 50 nM. Moreover, in data set [1] (setting [8]), the “level of LTP as % of vehicle-treated WT littermates” value is reported as ~100%. Moreover, the “LTP as % of vehicle-treated WT slices” value in data set [1] (slices of 6 month old APP/PS1 mice, 500 nM) is recorded as 93%. Also, the “minimum effective dose that completely rescues LTP” value in data set [1] (slices of 6 month old APP/PS1 mice, 10 min bath application) worked out at 500 nM. For the same molecule, the “effect on BST (fEPSP slope) in words” value in data set [1] (slices of 6 month old APP/PS1 mice, different concentrations) was “do not change fEPSP slope”. Also, the “minimum time needed for a positive effect on contextual fear memory” value in the data set with APP/PS1 mice (3 mg/kg, treated at 3 months, tested at 6-8 months) is on record as 2 weeks. In addition, the “minimum concentration needed to improve contextual fear memory” value in the data set with APP/PS1 mice (3-month-old APP/PS1, acute) turned out to be 3 mg/kg; with APP/PS1 mice (treated at 3 months, tested at 6-8 months), 3 mg/kg. The “contextual freezing time as % of vehicle-treated WT mice” value in the data set on APP/PS1 mice (3 month-old APP/PS1, sildenafil 3 mg/Kg i.p. after training, 24 hrs) is “about 87%”. Moreover, the contextual freezing time was 28.95±3.94% in the data set with APP/PS1 mice (3 month-old APP/PS1, sildenafil 3 mg/Kg or tadalafil 1 mg/Kg i.p., 24 hrs after training); 30.1±3.11% in the data set on APP/PS1 mice (setting [9]); 30.32±1.98% with APP/PS1 mice (setting [10]); 32.41±1.88% in the data set with APP/PS1 mice (setting [11]). The “contextual freezing as % of vehicle-treated WT mice” value with APP/PS1 mice (setting [9]) is on record as “about 89%”; with APP/PS1 mice (setting [10]), ~97%; in the data set on APP/PS1 mice (setting [11]), ~104%. The “effect on cued conditioning in words” value in the data set with APP/PS1 mice (3 months old APP/PS1 and WT, 3 mg/kg) is reported as “do not affect freezing during cued conditioning”. Further, the “effect on contextual fear memory in words” value in the data set with APP/PS1 mice is on record as “complete”. Besides, the “freezing time as % of vehicle-treated APP/PS1 mice” value in the data set with APP/PS1 mice (APP/PS1, injected i.p. 5 min before the electric shock) is ~90%. The figures for the half-life in data set [2] (setting [3]) and in data set [2] (setting [4]) were 0.84 h and 1.21 h, respectively.
